Reference: PubChem BioAssay AID328 (DTP/NCI, 2004)
Several values for one entry are separate records, joined by “and”; a condition that tells them apart may be missing. Identical values can stand only once. Inconclusive results and toxic doses are left out.

Test system: BDF1 mice, P388 leukemia ip, median survival T/C
Assay: NCI In Vivo Anticancer Drug Screen. Data for tumor model P388 Leukemia (intraperitoneal) in B6D2F1 (BDF1) mice
Conditions: endpoint: median survival time, higher = longer survival
Method in brief: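 Read-out is survival of treated animals expressed relative to the vehicle group, as a T/C ratio.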

[1] = dose: 100.0 mg/kg/injection, schedule: Q04DX003 (ip), vehicle: saline with Tween-80
[2] = dose: 200.0 mg/kg/injection, schedule: Q04DX003 (ip), vehicle: saline with Tween-80
[3] = dose: 400.0 mg/kg/injection, schedule: Q04DX003 (ip), vehicle: saline with Tween-80
[4] = dose: 100.0 mg/kg/injection, schedule: Q01DX009 (ip), vehicle: Klucel (hydroxypropylcellulose) (HPC)
[5] = dose: 100.0 mg/kg/injection, schedule: Q04DX003 (ip), vehicle: Klucel (hydroxypropylcellulose) (HPC)
[6] = dose: 200.0 mg/kg/injection, schedule: Q01DX009 (ip), vehicle: Klucel (hydroxypropylcellulose) (HPC)
[7] = dose: 200.0 mg/kg/injection, schedule: Q04DX003 (ip), vehicle: Klucel (hydroxypropylcellulose) (HPC)
[8] = dose: 400.0 mg/kg/injection, schedule: Q01DX009 (ip), vehicle: Klucel (hydroxypropylcellulose) (HPC)
[9] = dose: 400.0 mg/kg/injection, schedule: Q04DX003 (ip), vehicle: Klucel (hydroxypropylcellulose) (HPC)
[10] = dose: 50.0 mg/kg/injection, schedule: Q04DX003 (ip), vehicle: saline sonified
[11] = dose: 200.0 mg/kg/injection, schedule: Q04DX003 (ip), vehicle: saline sonified
[12] = dose: 50.0 mg/kg/injection, schedule: Q01DX009 (ip), vehicle: saline with Tween-80
[13] = dose: 100.0 mg/kg/injection, schedule: Q01DX009 (ip), vehicle: saline with Tween-80
[14] = dose: 25.0 mg/kg/injection, schedule: Q01DX009 (ip), vehicle: saline
[15] = dose: 50.0 mg/kg/injection, schedule: Q01DX009 (ip), vehicle: saline
[16] = dose: 50.0 mg/kg/injection, schedule: Q01DX009 (ip), vehicle: Klucel (hydroxypropylcellulose) (HPC)
[17] = dose: 25.0 mg/kg/injection, schedule: Q04DX003 (ip), vehicle: Klucel (hydroxypropylcellulose) (HPC)

CCc1ccc(NC(=O)c2cccc(Cl)c2)cc1
T/C [1]: 109 % of control | T/C [2]: 109 % of control | T/C [3]: 109 % of control

FC(F)(Cl)c1nc2nc(Cl)c(Cl)nc2[nH]1
T/C (dose: 266.0 mg/kg/injection, schedule: Q04DX003 (ip), vehicle: other): 100 % of control | T/C (dose: 400.0 mg/kg/injection, schedule: Q04DX003 (ip), vehicle: other): 108 % of control | T/C (dose: 600.0 mg/kg/injection, schedule: Q04DX003 (ip), vehicle: other): 108 % of control

CCCCSCC(N)C(=O)O (configuration not stated)
T/C [4]: 116 % of control | T/C [5]: 104 % of control | T/C [6]: 121 % of control | T/C [7]: 104 % of control | T/C [8]: 111 % of control | T/C [9]: 95 % of control

c1ccc(Cn2ccnc2C2OCCO2)cc1
T/C (dose: 6.25 mg/kg/injection, schedule: Q01DX009 (ip), vehicle: water): 95 % of control | T/C (dose: 12.5 mg/kg/injection, schedule: Q01DX009 (ip), vehicle: water): 88 % of control | T/C (dose: 12.5 mg/kg/injection, schedule: Q04DX003 (ip), vehicle: water): 104 % of control | T/C (dose: 25.0 mg/kg/injection, schedule: Q04DX003 (ip), vehicle: water): 101 % of control | T/C (dose: 50.0 mg/kg/injection, schedule: Q01DX009 (ip), vehicle: water): 112 % of control | T/C (dose: 50.0 mg/kg/injection, schedule: Q04DX003 (ip), vehicle: water): 107 % of control | T/C (dose: 100.0 mg/kg/injection, schedule: Q01DX009 (ip), vehicle: water): 93 % of control | T/C (dose: 100.0 mg/kg/injection, schedule: Q04DX003 (ip), vehicle: water): 92 % of control | T/C (dose: 200.0 mg/kg/injection, schedule: Q01DX009 (ip), vehicle: water): 87 % of control

COc1cc(C=Nc2ccc3c(c2)Cc2ccccc2-3)ccc1O
T/C [10]: 104 % of control | T/C [11]: 95 % of control

CC1(C)N=C(N)N=C(N)N1c1cccc(CNC(=O)Nc2cccc(S(=O)(=O)F)c2)c1
T/C [12]: 154 % of control | T/C (dose: 50.0 mg/kg/injection, schedule: Q04DX003 (ip), vehicle: saline with Tween-80): 100 % of control | T/C [13]: 168 % of control | T/C [1]: 100 % of control

O=C(O)CSc1ccc(NC(=O)Nc2ccccc2F)cc1
T/C [4]: 105 % of control | T/C [6]: 105 % of control | T/C [8]: 105 % of control

O=C1CC2c3ccccc3C1C1C(=O)OC(=O)C21 (configuration not stated)
T/C [5]: 104 % of control | T/C [7]: 90 % of control

C=C1C(=O)OC2CC(C)C3(O)OC(C)(CC(OC(=O)C(C)C)C12)CC3O (configuration not stated)
T/C (dose: 13.0 mg/kg/injection, schedule: Q01DX009 (ip), vehicle: saline): 120 % of control | T/C [14]: 110 % of control | T/C [15]: 95 % of control

C#CCOC(=O)NC1CCCCC1
T/C [16]: 100 % of control | T/C (dose: 50.0 mg/kg/injection, schedule: Q04DX003 (ip), vehicle: Klucel (hydroxypropylcellulose) (HPC)): 100 % of control | T/C [4]: 100 % of control | T/C [5]: 95 % of control | T/C [6]: 100 % of control | T/C [7]: 109 % of control

NC(C(=O)O)C(O)c1ccc2c(c1)OCO2 (configuration not stated)
T/C [13]: 95 % of control | T/C (dose: 200.0 mg/kg/injection, schedule: Q01DX009 (ip), vehicle: saline with Tween-80): 105 % of control | T/C (dose: 400.0 mg/kg/injection, schedule: Q01DX009 (ip), vehicle: saline with Tween-80): 95 % of control

CCOC(=O)c1[nH]c(C)nc1/N=N/N(C)C
T/C (dose: 12.5 mg/kg/injection, schedule: Q01DX009 (ip), vehicle: saline): 114 % of control | T/C [14]: 103 % of control and 121 % of control | T/C [15]: 111 % of control | T/C (dose: 200.0 mg/kg/injection, schedule: Q01DX009 (ip), vehicle: saline): 154 % of control and 180 % of control

CC(=O)O[C@]1(C(C)=O)CC[C@H]2[C@@H]3C[C@H](C)C4=CC(=O)C=C[C@]4(C)[C@@]3(F)[C@@H](O)C[C@@]21C
T/C (dose: 12.5 mg/kg/injection, schedule: Q01DX010 (sc), vehicle: steriod suspending solution): 100 % of control and 108 % of control | T/C (dose: 25.0 mg/kg/injection, schedule: Q01DX010 (sc), vehicle: steriod suspending solution): 100 % of control and 112 % of control | T/C (dose: 50.0 mg/kg/injection, schedule: Q01DX010 (sc), vehicle: steriod suspending solution): 95 % of control and 112 % of control | T/C (dose: 100.0 mg/kg/injection, schedule: Q01DX010 (sc), vehicle: steriod suspending solution): 91 % of control and 104 % of control

N#Cc1ccccc1[N+](=O)[O-]
T/C (dose: 4.0 mg/kg/injection, schedule: Q01DX010 (ip), vehicle: carboxymethylcellulose (CMC)): 100 % of control | T/C (dose: 16.0 mg/kg/injection, schedule: Q01DX010 (ip), vehicle: carboxymethylcellulose (CMC)): 100 % of control

Cc1ccc(NS(=O)(=O)c2ccccc2)nc1
T/C [1]: 112 % of control | T/C [2]: 116 % of control | T/C [3]: 96 % of control

COc1ccc(C2c3cc4c(c(OC)c3CC3OCC(=O)C32)OCO4)cc1OC (configuration not stated)
T/C (dose: 44.8 mg/kg/injection, schedule: Q01DX010 (ip), vehicle: saline): 163 % of control | T/C (dose: 50.0 mg/kg/injection, schedule: Q01DX001 (ip), vehicle: saline): 100 % of control | T/C (dose: 89.5 mg/kg/injection, schedule: Q01DX010 (ip), vehicle: saline): 172 % of control | T/C (dose: 100.0 mg/kg/injection, schedule: Q01DX001 (ip), vehicle: saline): 109 % of control | T/C (dose: 100.0 mg/kg/injection, schedule: Q01DX010 (ip), vehicle: other): 172 % of control | T/C (dose: 179.0 mg/kg/injection, schedule: Q01DX010 (ip), vehicle: saline): 100 % of control | T/C (dose: 200.0 mg/kg/injection, schedule: Q01DX001 (ip), vehicle: other): 157 % of control | T/C (dose: 200.0 mg/kg/injection, schedule: Q01DX001 (ip), vehicle: saline): 104 % of control | T/C (dose: 400.0 mg/kg/injection, schedule: Q01DX001 (ip), vehicle: other): 189 % of control | T/C (dose: 400.0 mg/kg/injection, schedule: Q01DX001 (ip), vehicle: saline): 122 % of control

CCCNC(=S)NNC(=O)c1ccncc1
T/C (dose: 6.25 mg/kg/injection, schedule: Q01DX009 (ip), vehicle: saline with Tween-80): 98 % of control | T/C (dose: 12.5 mg/kg/injection, schedule: Q01DX009 (ip), vehicle: saline with Tween-80): 97 % of control | T/C (dose: 25.0 mg/kg/injection, schedule: Q01DX009 (ip), vehicle: saline with Tween-80): 100 % of control | T/C [12]: 90 % of control | T/C [13]: 100 % of control

CC(=O)N(NC(=O)c1ccccn1)C(C)=O
T/C (dose: 50.0 mg/kg/injection, schedule: Q01DX009 (ip), vehicle: saline sonified): 86 % of control | T/C [10]: 104 % of control | T/C (dose: 100.0 mg/kg/injection, schedule: Q01DX009 (ip), vehicle: saline sonified): 95 % of control | T/C (dose: 100.0 mg/kg/injection, schedule: Q04DX003 (ip), vehicle: saline sonified): 90 % of control | T/C (dose: 200.0 mg/kg/injection, schedule: Q01DX009 (ip), vehicle: saline sonified): 91 % of control | T/C [11]: 104 % of control

NC(CC(=O)CCl)C(=O)O (configuration not stated)
T/C (dose: 8.25 mg/kg/injection, schedule: Q04DX003 (ip), vehicle: saline with Tween-80): 154 % of control | T/C (dose: 12.5 mg/kg/injection, schedule: Q04DX003 (ip), vehicle: Klucel (hydroxypropylcellulose) (HPC)): 165 % of control | T/C (dose: 12.5 mg/kg/injection, schedule: Q04DX003 (ip), vehicle: saline with Tween-80): 172 % of control | T/C (dose: 18.75 mg/kg/injection, schedule: Q04DX003 (ip), vehicle: saline with Tween-80): 109 % of control | T/C [17]: 165 % of control

CC(=N/O)/C(C)=N\O
T/C (dose: 6.25 mg/kg/injection, schedule: Q01DX009 (ip), vehicle: Klucel (hydroxypropylcellulose) (HPC)): 110 % of control | T/C (dose: 25.0 mg/kg/injection, schedule: Q01DX009 (ip), vehicle: Klucel (hydroxypropylcellulose) (HPC)): 95 % of control | T/C [17]: 95 % of control | T/C [16]: 110 % of control and 120 % of control | T/C (dose: 75.0 mg/kg/injection, schedule: Q01DX009 (ip), vehicle: Klucel (hydroxypropylcellulose) (HPC)): 100 % of control | T/C [4]: 120 % of control | T/C [5]: 95 % of control | T/C (dose: 100.0 mg/kg/injection, schedule: Q04DX003 (ip), vehicle: other): 100 % of control

O=C1CCCSc2ccccc21
T/C [4]: 120 % of control | T/C [5]: 100 % of control | T/C [6]: 115 % of control | T/C [7]: 100 % of control | T/C [8]: 115 % of control | T/C [9]: 100 % of control
